In paper PMC6348381, “Discovery of an MLLT1/3 YEATS Domain Chemical Probe” (Angewandte Chemie (International Ed. in English), 2018):

Tests used:
Format in all cases: binding
[1] = biological target: T1, ASH1L (Homo sapiens, UniProt Q9NR48); experiment: Thermal shift assay, ASH1L
T1 construct: purchased in-house (SGC bromodomain thermal shift / AlphaScreen panel)
Description: (§1) II.VII Thermal Shift Assay[6]
(§2) Thermal melting experiments were carried out using an Mx3005p Real Time PCR machine (Stratagene). Proteins were buffered in 10 mM HEPES pH 7.5, 500 mM NaCl and assayed in a 96-well plate at a final concentration of 2 μM in 20 μL volume. Compounds were added at a final concentration of 50 μM. SYPRO Orange (Molecular Probes) was added as a fluorescence probe at a dilution of 1:1000. Excitation and emission filters for the SYPRO-Orange dye were set to 465 nm and 590 nm, respectively. The temperature was raised with a step of 3 °C per minute from 25 °C to 96 °C and fluorescence readings were taken at each interval. The unfolding curves were fitted using the Boltzmann equation to determine the middle point of the transition.

[2] = biological target: T2, BAZ1B (Homo sapiens, UniProt Q9UIG0); experiment: Thermal shift assay, BAZ1B
T2 construct: purchased in-house (SGC bromodomain thermal shift / AlphaScreen panel)
T2 sequence (Q9UIG0 1-1483): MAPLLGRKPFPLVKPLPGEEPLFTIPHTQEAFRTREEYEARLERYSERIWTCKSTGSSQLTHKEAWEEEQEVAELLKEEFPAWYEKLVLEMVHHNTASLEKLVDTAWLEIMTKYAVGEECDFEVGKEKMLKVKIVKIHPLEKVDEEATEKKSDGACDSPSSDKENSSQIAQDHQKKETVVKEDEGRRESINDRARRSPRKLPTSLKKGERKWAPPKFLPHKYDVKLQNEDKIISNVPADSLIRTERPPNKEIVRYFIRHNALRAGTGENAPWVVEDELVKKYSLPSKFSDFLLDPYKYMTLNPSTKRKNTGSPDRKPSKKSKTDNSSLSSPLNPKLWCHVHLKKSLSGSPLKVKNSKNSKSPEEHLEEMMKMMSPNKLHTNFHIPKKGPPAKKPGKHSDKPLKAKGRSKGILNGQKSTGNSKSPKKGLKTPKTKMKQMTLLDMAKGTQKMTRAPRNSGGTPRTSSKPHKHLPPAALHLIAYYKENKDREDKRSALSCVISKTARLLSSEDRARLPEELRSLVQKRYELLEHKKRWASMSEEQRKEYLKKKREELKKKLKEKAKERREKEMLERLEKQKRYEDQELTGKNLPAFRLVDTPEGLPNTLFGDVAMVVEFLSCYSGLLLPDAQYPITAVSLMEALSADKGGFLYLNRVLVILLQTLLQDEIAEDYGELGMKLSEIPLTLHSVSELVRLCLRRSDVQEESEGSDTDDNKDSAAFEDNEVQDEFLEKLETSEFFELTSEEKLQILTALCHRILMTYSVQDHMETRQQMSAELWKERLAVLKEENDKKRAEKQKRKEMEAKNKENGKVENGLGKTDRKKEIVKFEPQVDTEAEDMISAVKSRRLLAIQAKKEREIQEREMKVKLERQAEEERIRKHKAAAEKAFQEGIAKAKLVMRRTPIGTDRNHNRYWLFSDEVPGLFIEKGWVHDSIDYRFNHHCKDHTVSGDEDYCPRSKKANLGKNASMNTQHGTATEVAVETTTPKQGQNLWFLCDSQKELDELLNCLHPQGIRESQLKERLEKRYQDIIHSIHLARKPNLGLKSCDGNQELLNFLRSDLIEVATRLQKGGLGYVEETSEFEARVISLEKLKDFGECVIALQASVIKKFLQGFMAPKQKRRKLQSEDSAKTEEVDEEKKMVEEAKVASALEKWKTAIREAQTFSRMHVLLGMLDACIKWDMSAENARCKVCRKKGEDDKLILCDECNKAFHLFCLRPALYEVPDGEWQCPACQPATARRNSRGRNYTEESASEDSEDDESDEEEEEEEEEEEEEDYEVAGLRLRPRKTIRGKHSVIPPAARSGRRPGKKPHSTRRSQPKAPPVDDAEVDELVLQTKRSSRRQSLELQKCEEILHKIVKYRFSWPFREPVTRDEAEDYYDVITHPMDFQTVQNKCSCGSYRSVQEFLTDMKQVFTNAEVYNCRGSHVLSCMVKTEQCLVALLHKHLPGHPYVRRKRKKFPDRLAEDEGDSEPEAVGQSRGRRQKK
Description: as §1, §2

[3] = biological target: T3, BAZ2B (Homo sapiens, UniProt Q9UIF8); experiment: Thermal shift assay, BAZ2B
T3 construct: purchased in-house (SGC bromodomain thermal shift / AlphaScreen panel)
Description: as §1, §2

[4] = biological target: T4, BRD2(2) (Homo sapiens, UniProt P25440); experiment: Thermal shift assay, BRD2(2)
T4 construct: BRD2(2); purchased in-house (SGC bromodomain thermal shift / AlphaScreen panel)

[5] = biological target: T5, BRD3(1) (Homo sapiens, UniProt Q15059); experiment: Thermal shift assay, BRD3(1)
T5 construct: BRD3(1); purchased in-house (SGC bromodomain thermal shift / AlphaScreen panel)
Description: as §1, §2

[6] = biological target: T6, BRD8 (Homo sapiens, UniProt Q9H0E9); experiment: Thermal shift assay, BRD8
T6 construct: purchased in-house (SGC bromodomain thermal shift / AlphaScreen panel)
Description: as §1, §2

[7] = biological target: T7, LOC93349 (Homo sapiens, UniProt Q9H930); experiment: Thermal shift assay, LOC93349
T7 construct: purchased in-house (SGC bromodomain thermal shift / AlphaScreen panel)
Description: as §1, §2

[8] = biological target: T8, PB1(1) (Homo sapiens, UniProt Q86U86); experiment: Thermal shift assay, PB1(1)
T8 construct: PB1(1); purchased in-house (SGC bromodomain thermal shift / AlphaScreen panel)
Description: as §1, §2

[9] = biological target: T9, PB1(3) (Homo sapiens, UniProt Q86U86); experiment: Thermal shift assay, PB1(3)
T9 construct: PB1(3); purchased in-house (SGC bromodomain thermal shift / AlphaScreen panel)
Description: as §1, §2

[10] = biological target: T10, PB1(4) (Homo sapiens, UniProt Q86U86); experiment: Thermal shift assay, PB1(4)
T10 construct: PB1(4); purchased in-house (SGC bromodomain thermal shift / AlphaScreen panel)
Description: as §1, §2

[11] = biological target: T11, TAF1L(2) (Homo sapiens, UniProt Q8IZX4); experiment: Thermal shift assay, TAF1L(2)
T11 construct: Bromosporine with recombinant human bromodomain proteins; made in house
T11 sequence (Q8IZX4 1517-1626 limits assumed): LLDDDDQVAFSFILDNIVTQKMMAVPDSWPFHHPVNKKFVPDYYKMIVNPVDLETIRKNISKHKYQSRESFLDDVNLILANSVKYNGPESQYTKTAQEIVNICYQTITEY
Description: as §1, §2

[12] = biological target: T12, TIF1a (Homo sapiens, UniProt O15164); experiment: Thermal shift assay, TIF1a
T12 construct: Bromosporine with recombinant human bromodomain proteins; made in house
T12 sequence (O15164 899-1004 limits assumed): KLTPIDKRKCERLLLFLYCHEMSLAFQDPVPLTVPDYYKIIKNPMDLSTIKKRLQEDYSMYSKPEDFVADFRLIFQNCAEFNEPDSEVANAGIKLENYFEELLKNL
Description: as §1, §2

[13] = biological target: T13, TRIM28 (Homo sapiens, UniProt Q13263); experiment: Thermal shift assay, TRIM28
T13 construct: Bromosporine with recombinant human bromodomain proteins; made in house
Description: as §1, §2

[14] = biological target: FALZ (Homo sapiens, UniProt Q12830); experiment: Thermal shift assay, FALZ; set-up: purchased in-house (SGC bromodomain thermal shift / AlphaScreen panel)
Description: as §1, §2

T5 sequence (Q15059 24-144 limits assumed): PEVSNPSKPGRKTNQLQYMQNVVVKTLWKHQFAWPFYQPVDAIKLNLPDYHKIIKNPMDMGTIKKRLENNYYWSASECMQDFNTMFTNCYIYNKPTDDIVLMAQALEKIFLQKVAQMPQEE
T4 sequence (P25440 344-455 limits assumed): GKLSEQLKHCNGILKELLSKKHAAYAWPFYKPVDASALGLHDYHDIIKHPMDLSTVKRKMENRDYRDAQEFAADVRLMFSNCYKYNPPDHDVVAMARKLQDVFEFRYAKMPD
T9 sequence (Q86U86 388-494 limits assumed): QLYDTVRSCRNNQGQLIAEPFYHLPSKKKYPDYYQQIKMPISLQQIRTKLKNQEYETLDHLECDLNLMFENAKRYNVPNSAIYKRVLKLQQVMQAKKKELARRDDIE
T10 sequence (Q86U86 496-637 limits assumed): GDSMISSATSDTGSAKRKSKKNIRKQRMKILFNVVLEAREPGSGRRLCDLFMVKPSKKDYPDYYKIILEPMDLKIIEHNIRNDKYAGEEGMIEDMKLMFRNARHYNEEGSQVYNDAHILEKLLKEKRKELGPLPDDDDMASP
T3 sequence (Q9UIF8 whole entry): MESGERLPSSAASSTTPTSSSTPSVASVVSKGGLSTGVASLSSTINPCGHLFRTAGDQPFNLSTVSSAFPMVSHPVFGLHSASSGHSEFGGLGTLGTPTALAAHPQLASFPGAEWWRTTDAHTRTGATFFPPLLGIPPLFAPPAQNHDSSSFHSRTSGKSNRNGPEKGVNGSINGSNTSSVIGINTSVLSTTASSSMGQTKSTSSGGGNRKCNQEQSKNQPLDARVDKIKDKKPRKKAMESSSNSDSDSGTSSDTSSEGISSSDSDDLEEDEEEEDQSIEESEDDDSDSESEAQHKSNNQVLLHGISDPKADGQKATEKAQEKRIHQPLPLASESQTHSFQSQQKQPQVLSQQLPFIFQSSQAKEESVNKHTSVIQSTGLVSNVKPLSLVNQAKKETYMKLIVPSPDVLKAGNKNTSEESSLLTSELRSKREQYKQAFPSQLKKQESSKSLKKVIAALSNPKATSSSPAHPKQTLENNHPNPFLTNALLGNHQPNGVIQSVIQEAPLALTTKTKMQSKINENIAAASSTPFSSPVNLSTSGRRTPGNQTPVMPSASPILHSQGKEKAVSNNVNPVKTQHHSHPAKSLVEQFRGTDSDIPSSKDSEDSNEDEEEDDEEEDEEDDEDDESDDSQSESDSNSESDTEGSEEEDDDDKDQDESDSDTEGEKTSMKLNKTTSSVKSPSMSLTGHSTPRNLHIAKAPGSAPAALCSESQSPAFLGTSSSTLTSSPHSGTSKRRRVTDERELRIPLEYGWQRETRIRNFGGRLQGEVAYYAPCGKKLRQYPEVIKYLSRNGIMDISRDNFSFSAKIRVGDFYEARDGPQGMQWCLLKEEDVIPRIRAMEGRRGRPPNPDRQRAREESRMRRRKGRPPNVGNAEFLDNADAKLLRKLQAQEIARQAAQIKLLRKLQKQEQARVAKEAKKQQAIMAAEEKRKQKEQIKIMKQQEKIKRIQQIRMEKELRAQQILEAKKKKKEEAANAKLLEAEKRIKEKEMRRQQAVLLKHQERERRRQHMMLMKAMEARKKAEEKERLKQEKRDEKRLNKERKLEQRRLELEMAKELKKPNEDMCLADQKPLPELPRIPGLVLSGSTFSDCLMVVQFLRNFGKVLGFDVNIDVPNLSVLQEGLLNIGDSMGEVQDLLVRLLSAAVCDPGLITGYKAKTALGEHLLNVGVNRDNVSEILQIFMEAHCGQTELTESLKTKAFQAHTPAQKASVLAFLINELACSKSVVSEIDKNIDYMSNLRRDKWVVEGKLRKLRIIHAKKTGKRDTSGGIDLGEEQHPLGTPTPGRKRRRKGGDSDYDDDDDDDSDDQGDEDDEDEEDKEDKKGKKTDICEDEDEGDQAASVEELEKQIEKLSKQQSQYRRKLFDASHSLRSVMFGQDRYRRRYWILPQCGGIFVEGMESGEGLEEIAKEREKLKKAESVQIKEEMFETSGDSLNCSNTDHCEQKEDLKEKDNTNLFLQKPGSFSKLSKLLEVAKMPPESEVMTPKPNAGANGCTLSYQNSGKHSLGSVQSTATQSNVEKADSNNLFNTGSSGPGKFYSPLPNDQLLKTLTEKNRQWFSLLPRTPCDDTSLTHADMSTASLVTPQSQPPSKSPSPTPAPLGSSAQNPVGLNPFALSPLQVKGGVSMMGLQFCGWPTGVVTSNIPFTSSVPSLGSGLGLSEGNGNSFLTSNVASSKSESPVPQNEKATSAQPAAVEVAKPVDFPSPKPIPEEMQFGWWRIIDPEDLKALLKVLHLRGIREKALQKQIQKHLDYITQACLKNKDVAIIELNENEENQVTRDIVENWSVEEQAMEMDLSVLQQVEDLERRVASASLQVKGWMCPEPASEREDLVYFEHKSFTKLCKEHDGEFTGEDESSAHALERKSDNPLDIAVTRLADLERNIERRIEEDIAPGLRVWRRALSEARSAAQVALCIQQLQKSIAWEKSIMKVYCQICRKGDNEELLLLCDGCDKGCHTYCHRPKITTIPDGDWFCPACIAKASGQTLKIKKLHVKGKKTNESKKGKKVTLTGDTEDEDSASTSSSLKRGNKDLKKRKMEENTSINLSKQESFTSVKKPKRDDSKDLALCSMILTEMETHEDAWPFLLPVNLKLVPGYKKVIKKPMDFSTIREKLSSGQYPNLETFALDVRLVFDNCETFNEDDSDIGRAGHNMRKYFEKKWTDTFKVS
T13 sequence (Q13263 695-799 limits assumed): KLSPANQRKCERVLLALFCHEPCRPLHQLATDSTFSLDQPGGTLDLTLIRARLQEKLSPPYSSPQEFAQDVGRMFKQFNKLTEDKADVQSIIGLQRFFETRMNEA
T8 sequence (Q86U86 43-156 limits assumed): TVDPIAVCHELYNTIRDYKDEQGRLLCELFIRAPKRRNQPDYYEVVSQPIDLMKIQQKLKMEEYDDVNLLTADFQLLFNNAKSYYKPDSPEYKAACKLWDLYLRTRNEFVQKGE
T6 sequence (Q9H0E9 whole entry): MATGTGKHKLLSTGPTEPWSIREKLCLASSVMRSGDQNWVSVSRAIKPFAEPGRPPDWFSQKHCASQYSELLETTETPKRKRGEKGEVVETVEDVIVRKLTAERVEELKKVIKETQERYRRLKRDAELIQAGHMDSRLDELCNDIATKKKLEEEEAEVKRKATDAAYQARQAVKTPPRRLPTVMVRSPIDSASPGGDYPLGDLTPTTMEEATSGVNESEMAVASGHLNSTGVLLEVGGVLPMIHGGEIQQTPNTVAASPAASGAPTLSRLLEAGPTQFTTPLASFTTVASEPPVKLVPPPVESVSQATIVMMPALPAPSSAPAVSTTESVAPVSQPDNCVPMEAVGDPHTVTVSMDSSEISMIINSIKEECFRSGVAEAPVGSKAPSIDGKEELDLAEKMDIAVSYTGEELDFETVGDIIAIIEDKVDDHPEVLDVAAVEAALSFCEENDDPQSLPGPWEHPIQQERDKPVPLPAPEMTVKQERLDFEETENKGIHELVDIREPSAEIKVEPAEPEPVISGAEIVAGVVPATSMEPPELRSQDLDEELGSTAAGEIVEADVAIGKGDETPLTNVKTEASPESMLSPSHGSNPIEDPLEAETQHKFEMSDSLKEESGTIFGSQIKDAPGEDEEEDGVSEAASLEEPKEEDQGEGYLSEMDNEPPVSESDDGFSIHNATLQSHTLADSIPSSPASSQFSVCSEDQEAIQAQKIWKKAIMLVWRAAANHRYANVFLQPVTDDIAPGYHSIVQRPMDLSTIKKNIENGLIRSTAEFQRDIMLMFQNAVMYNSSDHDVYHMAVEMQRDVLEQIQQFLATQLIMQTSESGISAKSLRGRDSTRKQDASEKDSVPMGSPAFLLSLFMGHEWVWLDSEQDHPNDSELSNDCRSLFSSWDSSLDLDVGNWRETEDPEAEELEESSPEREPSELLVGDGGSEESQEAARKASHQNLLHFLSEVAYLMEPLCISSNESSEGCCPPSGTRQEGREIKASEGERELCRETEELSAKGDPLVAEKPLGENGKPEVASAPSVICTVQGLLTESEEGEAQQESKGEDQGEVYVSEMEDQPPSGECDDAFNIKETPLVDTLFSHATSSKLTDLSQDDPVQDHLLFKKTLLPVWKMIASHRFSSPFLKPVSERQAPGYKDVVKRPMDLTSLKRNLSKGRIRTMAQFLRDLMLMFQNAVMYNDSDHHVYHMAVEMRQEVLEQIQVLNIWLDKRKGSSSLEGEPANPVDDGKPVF
T7 sequence (Q9H930 whole entry): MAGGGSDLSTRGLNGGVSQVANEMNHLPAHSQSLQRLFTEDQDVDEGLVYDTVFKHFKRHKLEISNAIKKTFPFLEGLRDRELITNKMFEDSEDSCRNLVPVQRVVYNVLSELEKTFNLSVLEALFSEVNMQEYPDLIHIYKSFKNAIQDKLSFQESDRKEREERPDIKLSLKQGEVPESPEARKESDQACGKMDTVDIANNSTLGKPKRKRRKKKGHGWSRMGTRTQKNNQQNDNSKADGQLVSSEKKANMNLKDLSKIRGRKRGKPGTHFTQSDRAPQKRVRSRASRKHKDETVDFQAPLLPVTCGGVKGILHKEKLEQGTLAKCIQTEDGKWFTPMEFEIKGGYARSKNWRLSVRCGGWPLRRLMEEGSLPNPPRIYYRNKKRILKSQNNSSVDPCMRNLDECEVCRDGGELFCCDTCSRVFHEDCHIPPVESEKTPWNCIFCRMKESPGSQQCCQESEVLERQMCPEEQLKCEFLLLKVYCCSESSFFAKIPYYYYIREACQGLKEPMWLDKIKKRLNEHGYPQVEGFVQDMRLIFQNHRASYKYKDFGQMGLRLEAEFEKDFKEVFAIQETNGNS

Structure (SMILES)	Thermal stabilisation, ASH1L ([1]; 50 μM compound)	Thermal stabilisation, BAZ1B ([2]; 50 μM compound)	Thermal stabilisation, BAZ2B ([3]; 50 μM compound)	Thermal stabilisation, BRD2(2) ([4]; 50 μM compound)	Thermal stabilisation, BRD3(1) ([5]; 50 μM compound)	Thermal stabilisation, BRD8 ([6]; 50 μM compound)	Thermal stabilisation, LOC93349 ([7]; 50 μM compound)	Thermal stabilisation, PB1(1) ([8]; 50 μM compound)	Thermal stabilisation, PB1(3) ([9]; 50 μM compound)	Thermal stabilisation, PB1(4) ([10]; 50 μM compound)	Thermal stabilisation, TAF1L(2) ([11]; 50 μM compound)	Thermal stabilisation, TIF1a ([12]; 50 μM compound)	Thermal stabilisation, TRIM28 ([13]; 50 μM compound)	Thermal stabilisation, FALZ ([14]; 50 μM compound)	other results
CCOC(=O)Nc1cc(-c2ccc(C)c(NS(C)(=O)=O)c2)nn2c(C)nnc12 [Bromosporine, reference compound]	–	–	–	–	–	–	–	–	–	–	–	–	–	–	Thermal stabilisation, ASH1L ([1]; 10 µM compound concentration): 0.51; Thermal stabilisation, BAZ1B ([2]; 10 µM compound concentration): -0.23; Thermal stabilisation, BAZ2B ([3]; 10 µM compound concentration): 1.385; Thermal stabilisation, BRD2(2) ([4]; 10 µM compound concentration): 5.8; Thermal stabilisation, BRD3(1) ([5]; 10 µM compound concentration): 5.275; Thermal stabilisation, BRD8 ([6]; 10 µM compound concentration): 0.74; Thermal stabilisation, LOC93349 ([7]; 10 µM compound concentration): 2.385; Thermal stabilisation, PB1(1) ([8]; 10 µM compound concentration): 0.98; Thermal stabilisation, PB1(3) ([9]; 10 µM compound concentration): 0.24; Thermal stabilisation, PB1(4) ([10]; 10 µM compound concentration): 1.035; Thermal stabilisation, TAF1L(2) ([11]; 10 µM compound concentration): 4.83; Thermal stabilisation, TIF1a ([12]; 10 µM compound concentration): 0.16; Thermal stabilisation, TRIM28 ([13]; 10 µM compound concentration): 0.265; Thermal stabilisation, FALZ ([14]; 10 µM compound concentration): 1.5
COC(=O)c1ccc(C(=O)Nc2ccc3[nH]c(CN4CCCCC4)nc3c2)cc1 [Compound 1]	0.32	1.03	0.57	0.55	1.82	-1.225	0.035	-1.095	1.5	0.22	-0.065	-1.13	0.02	0.235	–
C[C@H]1CCCN1Cc1nc2cc(NC(=O)c3ccc4c(cnn4C)c3)ccc2[nH]1 [Compound 92]	-0.305	-0.19	0.155	0.19	-0.42	-0.715	-1.05	-1.745	1.09	-0.215	-0.48	-1.04	-0.225	-0.315	–
